Source: the NIST ThermoML archive (doi:10.1016/j.fluid.2013.06.013)

Legend:
[1] = 298.15 K; 101.33 kPa; Liquid; Vibrating tube method
[2] = refractive index (Na D-line) (dimensionless); settings: 298.15 K; 101.33 kPa; Liquid; Standard Abbe refractometry
[3] = refractive index (Na D-line) (dimensionless); xn = mol fraction of the nth substance listed; settings: 298.15 K, 101 kPa, Liquid, Standard Abbe refractometry
[4] = xn = mol fraction of the nth substance listed; settings: 298.15 K, 101 kPa, Liquid, Vibrating tube method

CC(CC(C)(C)C)CP(=O)([O-])CC(C)CC(C)(C)C.CCCCCCCCCCCCCC[P+](CCCCCC)(CCCCCC)CCCCCC
Settings	mass density [kg/m3]	refractive index
[1]	886.43	–
[2]	–	1.47125

CCCC[n+]1ccn(C)c1.O=S(=O)([N-]S(=O)(=O)C(F)(F)F)C(F)(F)F
Settings	mass density [kg/m3]	refractive index
[1]	1436.16	–
[2]	–	1.42689

CCn1cc[n+](C)c1.O=S(=O)([N-]S(=O)(=O)C(F)(F)F)C(F)(F)F
Settings	mass density [kg/m3]	refractive index
[1]	1518.86	–
[2]	–	1.42293

CCCCn1cc[n+](C)c1.F[P-](F)(F)(F)(F)F [1-butyl-3-methylimidazolium hexafluorophosphate]
Settings	mass density [kg/m3]	refractive index
[1]	1366.95	–
[2]	–	1.40926

CCCCCCn1cc[n+](C)c1.F[B-](F)(F)F [1-hexyl-3-methylimidazolium tetrafluoroborate]
Settings	mass density [kg/m3]	refractive index
[1]	1144.46	–
[2]	–	1.42844

CCCCCCCC[n+]1ccn(C)c1.F[B-](F)(F)F [1-methyl-3-octylimidazolium tetrafluoroborate]
Settings	mass density [kg/m3]	refractive index
[1]	1101.99	–
[2]	–	1.43306

CC(=O)CC(C)=O [2,4-pentanedione]
Settings	mass density [kg/m3]	refractive index
[1]	971.07	–
[2]	–	1.4509

CC(=O)CC(C)=O [2,4-pentanedione] + CC(CC(C)(C)C)CP(=O)([O-])CC(C)CC(C)(C)C.CCCCCCCCCCCCCC[P+](CCCCCC)(CCCCCC)CCCCCC
Settings	mass density, [4] [kg/m3]	refractive index, [3]
x1 = 0.0517	888.32	1.4714
x1 = 0.0958	889.43	1.4721
x1 = 0.2082	892.48	1.4731
x1 = 0.2986	895.05	1.4742
x1 = 0.3991	898	1.4751
x1 = 0.499	901.47	1.475
x1 = 0.6013	905.75	1.4753
x1 = 0.7004	911.47	1.474
x1 = 0.7998	919.31	1.4716
x1 = 0.9	933.94	1.4659
x1 = 0.95	946.89	1.4602

CCCCCCCCCCCCCC[P+](CCCCCC)(CCCCCC)CCCCCC.N#C[N-]C#N [tetradecyl(trihexyl)phosphonium dicyanamide]
Settings	mass density [kg/m3]	refractive index
[1]	899.14	–
[2]	–	1.48154

CCCCCCCCCCCCCC[P+](CCCCCC)(CCCCCC)CCCCCC.N#C[N-]C#N [tetradecyl(trihexyl)phosphonium dicyanamide] + CC(=O)CC(C)=O
Settings	mass density, [4] [kg/m3]	refractive index, [3]
x2 = 0.0599	899.94	1.481
x2 = 0.113	900.73	1.4808
x2 = 0.2	902.2	1.4801
x2 = 0.3143	904.54	1.4795
x2 = 0.4094	906.97	1.4785
x2 = 0.5016	909.92	1.4773
x2 = 0.5967	913.83	1.4757
x2 = 0.7002	919.76	1.4732
x2 = 0.8004	928.35	1.47
x2 = 0.9	942.61	1.463
x2 = 0.9496	953.89	1.4578

CCCCCCCCCCCCCC[P+](CCCCCC)(CCCCCC)CCCCCC.[Cl-] [trihexyl(tetradecyl)phosphonium chloride]
Settings	mass density [kg/m3]	refractive index
[1]	891.82	–
[2]	–	1.48175

CCCCCCCCCCCCCC[P+](CCCCCC)(CCCCCC)CCCCCC.[Cl-] [trihexyl(tetradecyl)phosphonium chloride] + CC(=O)CC(C)=O
Settings	mass density, [4] [kg/m3]	refractive index, [3]
x2 = 0.0586	892.92	1.4811
x2 = 0.0977	893.66	1.481
x2 = 0.1957	895.67	1.481
x2 = 0.2949	898.11	1.4805
x2 = 0.3989	901.25	1.4799
x2 = 0.4985	905.14	1.478
x2 = 0.6092	910.91	1.4759
x2 = 0.7096	918.02	1.4741
x2 = 0.8008	926.85	1.4705
x2 = 0.9036	942.76	1.4633
x2 = 0.9508	953.8	1.458

CCCCCCCCN(CCCCCCCC)CCCCCCCC [trioctylamine]
Settings	mass density [kg/m3]	refractive index
[1]	807.46	–
[2]	–	1.44758

O [water]
Settings	refractive index
[2]	1.33249
